pIC50: −log10 of the molar value.

This experiment concerns human platelet rich plasma. The experiment in a line: Inhibition of human platelet aggregation, 96-well assay. The experiment is classed as cell-based. How it is done:
Inhibition of Human Platelet Aggregation
Alternatively to a binding assay which measures a compound's ability to bind to the P2Y12 receptor, the effect on cellular function was also determined. This ability of the compound was evaluated in two platelet aggregation assays: in 96-well plates and with the “Born”-method using single cuvettes.
Whole blood was collected from healthy volunteers using 20 ml syringes containing 2 ml of ACD-A Aqua-Citrat-Dextrose-A, Fresenius). The anticoagulated whole blood was transferred into 15 ml polypropylene conical tubes (10 ml per tube). The tubes were centrifuged for 15 minutes at 150×g at RT without using the centrifuge brake. This procedure leads to a pellet of cellular components and a supernatant of platelet rich plasma (PRP). The PRP layer was collected from each tube and pooled for each donor. To avoid carry over of cellular components following centrifugation, approximately 5 ml of PRP was left in the tube. The platelet concentration was determined using a Coulter Counter.
The 15 ml tubes containing the pellet of cellular components were centrifuged again for 10 minutes at 1940×g. This pelleted out most particulate blood constituents remaining, leaving a layer of Platelet Poor Plasma (PPP). The PPP was collected for each donor. The PRP layer, previously set aside, was diluted with PPP to a final concentration of approximately 3×E8 platelets/ml with the PPP.
The human platelet aggregation assay is performed in 96-well plates using a microtiter plate reader (SpectraMax Plus 384 with SoftMax Pro software from Molecular Devices). In the plate 15 μl of test compound at 10× final concentration in NaCl is mixed with 120 μl fresh PRP and incubated for 5 minutes. Following that incubation period, 15 μl of 40 μM ADP is added to the reaction mix. This addition of ADP is sufficient to induce aggregation in the absence of an inhibitor. The plates are then transferred to the microplate reader and aggregation is measured over 20 minutes. The instrument settings include:
Absorbance at 650 nm, run time 20 minutes with readings in 1-minute intervals and 50 seconds shaking between readings all performed at 37° C.

The mark [1] stands for this setting: ADP-induced aggregation, human platelet rich plasma, 96-well plates, AUC of absorbance over 20 minutes.

In general, pIC50 refers to the negative decadic logarithm of the IC50, by convention in mol/L. Low values mean a large IC50, high ones a small IC50. For `C[C@H](NC(=O)c1cc(OCC(=O)N2CCC[C@H]2C(=O)NC2CCC2)n(-c2ccccc2)n1)C(=O)N1CCN(C(=O)OC2CCC2)CC1` [Example 193, 4-[(S)-2-({5-[2-((S)-2-Cyclobutylcarbamoyl-pyrrolidin-1-yl)-2-oxo-ethoxy]-1-phenyl-1H-pyrazole-3-carbonyl}-amino)-propionyl]-piperazine-1-carboxylic acid cyclobutyl ester], the pIC50 (Homo sapiens, Platelet, 20 min) is 6.34.

`CCOC(=O)N1CCN(C(=O)[C@H](CCC(=O)O)NC(=O)c2cc(OCC(=O)N3CCC[C@H]3C(=O)NC3CCC3)n(-c3ccccc3)n2)[C@@H](C)C1` [Example 153, (S)-4-[(S)-4-Carboxy-2-({5-[2-((S)-2-cyclobutylcarbamoyl-pyrrolidin-1-yl)-2-oxo-ethoxy]-1-phenyl-1H-pyrazole-3-carbonyl}-amino)-butyryl]-3-methyl-piperazine-1-carboxylic acid ethyl ester]: the pIC50 (Homo sapiens, Platelet, 20 min) was 6.37.

As for `CCOC(=O)N1CCN(C(=O)[C@H](CC(C)C)NC(=O)c2cc(OCC(=O)N3CCC[C@H]3C(=O)NC3CCC3)n(-c3ccccc3)n2)CC1` [Example 215, 4-[(S)-2-({5-[2-((S)-2-Cyclobutylcarbamoyl-pyrrolidin-1-yl)-2-oxo-ethoxy]-1-phenyl-1H-pyrazole-3-carbonyl}-amino)-4-methyl-pentanoyl]-piperazine-1-carboxylic acid ethyl ester], the pIC50 (Homo sapiens, Platelet, 20 min) is 6.02.

`CCOC(=O)N1CCN(C(=O)[C@H](CCC(=O)O)NC(=O)c2cc(OCC(=O)N3CCC[C@H]3C(=O)N3CCC(F)(F)CC3)n(-c3ccccc3)n2)CC1` [Example 19, 4-{(S)-4-Carboxy-2-[(5-{2-[(S)-2-(4,4-difluoro-piperidine-1-carbonyl)-pyrrolidin-1-yl]-2-oxo-ethoxy}-1-phenyl-1H-pyrazole-3-carbonyl)-amino]-butyryl}-piperazine-1-carboxylic acid ethyl ester] had a pIC50 (Homo sapiens, Platelet, 20 min) of 6.68.

For the molecule `CCOC(=O)N1CCN(C(=O)[C@H](CCNC(=O)C(F)(F)F)NC(=O)c2cc(OCC(=O)N3CCC[C@H]3C(=O)NC3CCC3)n(-c3ccccc3)n2)CC1` [Example 98, 4-[(S)-2-({5-[2-((S)-2-Cyclobutylcarbamoyl-pyrrolidin-1-yl)-2-oxo-ethoxy]-1-phenyl-1H-pyrazole-3-carbonyl}-amino)-4-(2,2,2-trifluoro-acetylamino)-butyryl]-piperazine-1-carboxylic acid ethyl ester], the pIC50 (Homo sapiens, Platelet, 20 min) is 5.74.

With `CCOC(=O)N1CCN(C(=O)[C@H](CC(=O)O)NC(=O)c2cc(OCC(=O)N3CCC[C@H]3C(=O)NC3CC3)n(-c3ccccc3)n2)CC1` [Example 56, 4-[(S)-3-Carboxy-2-({5-[2-((S)-2-cyclopropylcarbamoyl-pyrrolidin-1-yl)-2-oxo-ethoxy]-1-phenyl-1H-pyrazole-3-carbonyl}-amino)-propionyl]-piperazine-1-carboxylic acid ethyl ester], the pIC50 (Homo sapiens, Platelet, 20 min) is 7.22.

In the case of `CCOC(=O)N1CCN(C(=O)[C@H](CC(=O)O)NC(=O)c2cc(OCC(=O)N3CCC[C@H]3C(=O)NCCF)n(-c3ccccc3)n2)CC1` [Example 59, 4-{(S)-3-Carboxy-2-[(5-{2-[(S)-2-(2-fluoro-ethylcarbamoyl)-pyrrolidin-1-yl]-2-oxo-ethoxy}-1-phenyl-1H-pyrazole-3-carbonyl)-amino]-propionyl}-piperazine-1-carboxylic acid ethyl ester], the pIC50 (Homo sapiens, Platelet, 20 min) was 6.20.

For the molecule `CCOC(=O)N1CCN(C(=O)[C@H](CCC(=O)O)NC(=O)c2cc(OCC(=O)N3CCC[C@H]3C(=O)NC)n(-c3ccccc3)n2)CC1` [Example 7, 4-{(S)-4-Carboxy-2-[(5-{2-[(S)-2-(2-methylcarbamoyl)-pyrrolidin-1-yl]-2-oxo-ethoxy}-1-phenyl-1H-pyrazole-3-carbonyl)-amino]-butyryl}-piperazine-1-carboxylic acid ethyl ester], the pIC50 under setting [1] is 5.84.

`CCOC(=O)N1CCN(C(=O)[C@H](CCC(=O)O)NC(=O)c2cc(O[C@@H](C)C(=O)N3CCC[C@H]3C(=O)NC3CC3)n(-c3ccccc3)n2)CC1` [Example 66, 4-[(S)-4-Carboxy-2-({5-[(S)-2-((S)-2-cyclopropylcarbamoyl-pyrrolidin-1-yl)-1-methyl-2-oxo-ethoxy]-1-phenyl-1H-pyrazole-3-carbonyl}-amino)-butyryl]-piperazine-1-carboxylic acid ethyl ester] gave a pIC50 (Homo sapiens, Platelet, 20 min) of 6.48.

In the case of `O=C(O)CC[C@H](NC(=O)c1cc(OCC(=O)N2CCC[C@H]2C(=O)NC2CCC2)n(-c2ccccc2)n1)C(=O)N1CCN(C(=O)Oc2ccccc2)CC1` [Example 156, 4-[(S)-4-Carboxy-2-({5-[2-((S)-2-cyclobutylcarbamoyl-pyrrolidin-1-yl)-2-oxo-ethoxy]-1-phenyl-1H-pyrazole-3-carbonyl}-amino)-butyryl]-piperazine-1-carboxylic acid phenyl ester], under “Homo sapiens, Platelet, 20 min”, the pIC50 was 5.97.

In turn, `O=C(NCC(=O)N1CCN(C(=O)[C@@H]2C[C@H]2c2ccccc2)CC1)c1cc(OCC(=O)N2CCC[C@H]2C(=O)NC2CCC2)n(-c2ccccc2)n1` [Example 246, 5-[2-((S)-2-Cyclobutylcarbamoyl-pyrrolidin-1-yl)-2-oxo-ethoxy]-1-phenyl-1H-pyrazole-3-carboxylic acid {2-oxo-2-[4-((1R,2R)-2-phenyl-cyclopropanecarbonyl)-piperazin-1-yl]-ethyl}-amide] showed a pIC50 (Homo sapiens, Platelet, 20 min) of 6.25.

For `CCOC(=O)N1CCN(C(=O)[C@H](CCC(=O)O)NC(=O)c2cc(OCC(=O)N3CC[C@H]3C(=O)NC3CC3)n(-c3ccccc3)n2)CC1` [Example 40, 4-[(S)-4-Carboxy-2-({5-[2-((S)-2-cyclopropylcarbamoyl-azetidin-1-yl)-2-oxo-ethoxy]-1-phenyl-1H-pyrazole-3-carbonyl}-amino)-butyryl]-piperazine-1-carboxylic acid ethyl ester], the pIC50 (Homo sapiens, Platelet, 20 min) is 6.07.

`CCOC(=O)N1CCN(C(=O)[C@H](CCC(=O)OCCN2CCOCC2)NC(=O)c2cc(OCC(=O)N3CCC[C@H]3C(=O)NC3CCC3)n(-c3ccccc3)n2)CC1` [Example 201, 4-[(S)-2-({5-[2-((S)-2-Cyclobutylcarbamoyl-pyrrolidin-1-yl)-2-oxo-ethoxy]-1-phenyl-1H-pyrazole-3-carbonyl}-amino)-4-(2-morpholin-4-yl-ethoxycarbonyl)-butyryl]-piperazine-1-carboxylic acid ethyl ester] showed a pIC50 (Homo sapiens, Platelet, 20 min) of 6.24.

`CCOC(=O)N1CCN(C(=O)[C@H](CCC(=O)O)NC(=O)c2cc(OCC(=O)N3CCC[C@H]3C(=O)N(C)C3CCC3)n(-c3ccccc3)n2)CC1` [Example 22, 4-{(S)-4-Carboxy-2-[(5-{2-[(S)-2-(cyclobutyl-methyl-carbamoyl)-pyrrolidin-1-yl]-2-oxo-ethoxy}-1-phenyl-1H-pyrazole-3-carbonyl)-amino]-butyryl}-piperazine-1-carboxylic acid ethyl ester] gave a pIC50 (Homo sapiens, Platelet, 20 min) of 6.66.

With `CCOC(=O)N1CCN(C(=O)[C@H](CCC(=O)O)NC(=O)c2cc(OCC(=O)N3CCC[C@H]3C(=O)N3CCCC3)n(-c3ccccc3)n2)CC1` [Example 17, 4-{(S)-4-Carboxy-2-[(5-{2-oxo-2-[(S)-2-(pyrrolidine-1-carbonyl)-pyrrolidin-1-yl]-ethoxy}-1-phenyl-1H-pyrazole-3-carbonyl)-amino]-butyryl}-piperazine-1-carboxylic acid ethyl ester], where the note is “Homo sapiens, Platelet, 20 min”, the pIC50 was 6.22.

The molecule `CCOC(=O)N1CCN(C(=O)[C@H](CCC(=O)O)NC(=O)c2cc(OCC(=O)N3CCC[C@H]3c3nc(C4CC4)no3)n(-c3ccccc3)n2)CC1` [Example 180, 4-{(S)-4-Carboxy-2-[(5-{2-[(S)-2-(3-cyclopropyl-[1,2,4]oxadiazol-5-yl)-pyrrolidin-1-yl]-2-oxo-ethoxy}-1-phenyl-1H-pyrazole-3-carbonyl)-amino]-butyryl}-piperazine-1-carboxylic acid ethyl ester] showed a pIC50 (Homo sapiens, Platelet, 20 min) of 6.35.

Turning to `CCOC(=O)N1CCN(C(=O)[C@H](CCC(=O)O)NC(=O)c2cc(OCC(=O)N3CC(F)(F)C[C@H]3C(=O)NC3CC3)n(-c3ccccc3)n2)CC1` [Example 165, 4-[(S)-4-Carboxy-2-({5-[2-((S)-2-cycloproylcarbamoyl-4,4-difluoro-pyrrolidin-1-yl)-2-oxo-ethoxy]-1-phenyl-1H-pyrazole-3-carbonyl}-amino)-butyryl]-piperazine-1-carboxylic acid ethyl ester], the pIC50 under setting [1] was 6.47.

Turning to `O=C(NCC(=O)N1CCN(C(=O)OCc2ccccc2)CC1)c1cc(OCC(=O)N2CCC[C@H]2C(=O)NC2CCC2)n(-c2ccccc2)n1` [Example 275, 4-[2-({5-[2-((S)-2-Cyclobutylcarbamoyl-pyrrolidin-1-yl)-2-oxo-ethoxy]-1-phenyl-1H-pyrazole-3-carbonyl}-amino)-acetyl]-piperazine-1-carboxylic acid benzyl ester], the pIC50 (Homo sapiens, Platelet, 20 min) was 6.31.
